Values belong to the compound of their own block, whether it stands above or below them. Calls of active or inactive are those of the source. No cut-off for these calls is given here.
How the values were obtained:
P-gp (ABCB1) = P-gp (ABCB1) (Homo sapiens, UniProt P08183); assay: Inhibition of P-gp in human K562/R7 cells assessed as daunorubicin accumulation at 10 uM incubated fro 1 hr by flow cytometry relative to cyclosporine A; format: cell-based; conditions: probe daunorubicin, read-out: Activity
Chain of P-gp (ABCB1) (P08183 whole entry): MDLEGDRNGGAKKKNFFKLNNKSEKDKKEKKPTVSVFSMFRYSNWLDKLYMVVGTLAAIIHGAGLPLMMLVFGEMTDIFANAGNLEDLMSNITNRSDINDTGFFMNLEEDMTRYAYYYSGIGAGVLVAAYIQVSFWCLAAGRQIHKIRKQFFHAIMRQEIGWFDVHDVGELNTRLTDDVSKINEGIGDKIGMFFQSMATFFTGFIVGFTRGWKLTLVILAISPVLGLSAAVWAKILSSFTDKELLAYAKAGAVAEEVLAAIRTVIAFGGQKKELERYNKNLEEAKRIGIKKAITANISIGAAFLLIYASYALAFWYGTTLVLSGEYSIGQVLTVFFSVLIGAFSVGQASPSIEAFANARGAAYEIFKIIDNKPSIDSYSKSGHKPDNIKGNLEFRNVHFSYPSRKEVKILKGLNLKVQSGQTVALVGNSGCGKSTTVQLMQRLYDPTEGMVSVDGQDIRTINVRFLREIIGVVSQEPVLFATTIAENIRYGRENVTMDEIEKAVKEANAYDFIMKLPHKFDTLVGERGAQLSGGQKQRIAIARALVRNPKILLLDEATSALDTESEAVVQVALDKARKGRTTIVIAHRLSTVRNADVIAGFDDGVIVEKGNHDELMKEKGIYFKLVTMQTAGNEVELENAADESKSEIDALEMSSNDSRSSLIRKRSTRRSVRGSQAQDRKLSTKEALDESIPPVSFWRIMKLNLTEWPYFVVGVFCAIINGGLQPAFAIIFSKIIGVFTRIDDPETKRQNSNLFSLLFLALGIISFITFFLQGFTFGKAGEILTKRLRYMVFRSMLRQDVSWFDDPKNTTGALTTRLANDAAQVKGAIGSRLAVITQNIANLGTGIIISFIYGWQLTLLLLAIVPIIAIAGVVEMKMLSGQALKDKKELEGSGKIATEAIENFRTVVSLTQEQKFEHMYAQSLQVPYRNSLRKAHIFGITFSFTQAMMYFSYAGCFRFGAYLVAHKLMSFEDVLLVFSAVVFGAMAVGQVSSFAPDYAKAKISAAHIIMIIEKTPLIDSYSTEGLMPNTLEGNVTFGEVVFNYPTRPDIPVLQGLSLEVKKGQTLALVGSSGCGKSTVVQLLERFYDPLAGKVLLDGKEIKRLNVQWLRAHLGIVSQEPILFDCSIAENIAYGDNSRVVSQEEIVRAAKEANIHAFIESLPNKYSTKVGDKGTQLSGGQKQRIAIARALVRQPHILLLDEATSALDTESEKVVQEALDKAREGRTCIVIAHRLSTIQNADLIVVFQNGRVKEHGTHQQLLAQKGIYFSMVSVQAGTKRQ

Progesterone receptor = target: T1, Progesterone receptor (Homo sapiens, UniProt P06401); assay: Displacement of [3H]ORG2058 from progesterone receptor in human breast carcinoma cytosol at 0.5 to 3.5 uM by liquid scintillation counting based DCC competitive binding assay
T1 sequence (P06401 whole entry): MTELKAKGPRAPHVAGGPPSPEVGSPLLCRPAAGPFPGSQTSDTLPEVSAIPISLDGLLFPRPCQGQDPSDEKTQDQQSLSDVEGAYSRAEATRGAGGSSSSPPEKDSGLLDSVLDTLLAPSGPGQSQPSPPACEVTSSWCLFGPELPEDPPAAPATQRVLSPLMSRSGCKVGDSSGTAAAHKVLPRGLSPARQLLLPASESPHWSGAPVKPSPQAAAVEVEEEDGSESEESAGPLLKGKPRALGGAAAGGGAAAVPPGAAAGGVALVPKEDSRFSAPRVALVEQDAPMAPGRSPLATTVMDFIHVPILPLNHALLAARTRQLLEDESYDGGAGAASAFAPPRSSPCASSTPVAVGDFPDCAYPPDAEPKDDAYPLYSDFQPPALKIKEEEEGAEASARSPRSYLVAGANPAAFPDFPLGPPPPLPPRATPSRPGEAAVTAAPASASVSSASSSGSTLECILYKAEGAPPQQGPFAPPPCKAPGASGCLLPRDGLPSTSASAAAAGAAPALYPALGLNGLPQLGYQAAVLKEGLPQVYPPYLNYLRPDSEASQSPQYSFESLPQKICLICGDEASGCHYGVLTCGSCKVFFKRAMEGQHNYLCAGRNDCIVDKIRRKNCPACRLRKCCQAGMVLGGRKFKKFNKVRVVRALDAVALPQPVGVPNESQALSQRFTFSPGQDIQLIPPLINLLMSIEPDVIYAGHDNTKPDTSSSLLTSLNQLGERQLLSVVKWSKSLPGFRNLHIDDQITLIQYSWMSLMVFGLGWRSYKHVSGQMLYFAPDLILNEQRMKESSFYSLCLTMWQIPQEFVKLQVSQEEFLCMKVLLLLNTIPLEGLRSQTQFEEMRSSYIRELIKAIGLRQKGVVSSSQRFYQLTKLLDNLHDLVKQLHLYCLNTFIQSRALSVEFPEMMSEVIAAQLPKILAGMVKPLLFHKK

[1] = target: T2, Nuclear receptor subfamily 1 group I member 2 (Homo sapiens, UniProt O75469); assay: Activation of human PXR at 10 nM to 10 uM; format: ADME; conditions: 0.01 µM
T2 sequence (O75469 whole entry): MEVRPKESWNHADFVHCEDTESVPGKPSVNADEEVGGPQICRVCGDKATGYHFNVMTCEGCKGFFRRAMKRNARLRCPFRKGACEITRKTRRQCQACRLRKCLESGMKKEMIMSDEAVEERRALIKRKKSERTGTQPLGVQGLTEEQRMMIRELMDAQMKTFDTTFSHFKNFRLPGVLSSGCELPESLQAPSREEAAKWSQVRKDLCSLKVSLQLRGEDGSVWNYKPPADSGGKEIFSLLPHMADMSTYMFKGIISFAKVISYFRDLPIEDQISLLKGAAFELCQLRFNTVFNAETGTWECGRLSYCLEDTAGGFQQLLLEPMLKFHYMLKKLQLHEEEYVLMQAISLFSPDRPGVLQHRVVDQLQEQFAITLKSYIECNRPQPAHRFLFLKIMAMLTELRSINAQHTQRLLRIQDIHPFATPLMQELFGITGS

K562/R7 [2] = assay: Potentiation of doxorubicin-induced antitumor activity against human K562/R7 cells xenografted in SCID mouse assessed as reduction in tumor volume at 10 mg/kg co-treated with 1.5 mg/kg doxorubicin measured up to 80 days; format: functional, organism-based
NCI-H295R [3] = assay: Potentiation of doxorubicin-induced antitumor activity against human NCI-H295R cells xenografted in SCID mouse assessed as reduction in tumor volume at 10 mg/kg co-treated with 1.5 mg/kg doxorubicin measured up to 80 days; format: functional, organism-based
K562/R7 [4] = assay: Potentiation of doxorubicin-induced antitumor activity against human K562/R7 cells xenografted in SCID mouse assessed as reduction in tumor volume at 10 mg/kg co-treated with 1.5 mg/kg doxorubicin after 40 days post dose; format: functional, organism-based
NCI-H295R [5] = assay: Potentiation of doxorubicin-induced antitumor activity against human NCI-H295R cells xenografted in SCID mouse assessed as reduction in tumor volume at 10 mg/kg co-treated with 1.5 mg/kg doxorubicin after 40 days post dose; format: functional, organism-based

SMILES: CC(=O)[C@H]1CC[C@H]2[C@H]3[C@H]([C@H](O[C@@H]4CCCCO4)C[C@]12C)[C@@]1(C)CCC(=O)C[C@H]1C[C@H]3OC(=O)c1ccccc1
inhibition at 1 h, 10 µM (P-gp (ABCB1)): 119%
Activity (Progesterone receptor): Not Active
Activity [1]: Not Active
Activity (K562/R7 [2]): Active
Activity (NCI-H295R [3]): Active
Activity (K562/R7 [4]): Active
Activity (NCI-H295R [5]): Active

SMILES: CC(=O)[C@H]1CC[C@H]2[C@H]3[C@H]([C@H](OC(=O)c4ccccc4)C[C@]12C)[C@@]1(C)CCC(=O)C[C@H]1C[C@H]3OC(=O)c1ccccc1
Activity (Progesterone receptor): Not Active
Activity [1]: Not Active

SMILES: CC(=O)[C@@]1(O[C@H]2CCCCO2)CC[C@H]2[C@@H]3CC[C@@H]4CC(=O)CC[C@]4(C)[C@H]3[C@H](O[C@H]3CCCCO3)C[C@@]21C
Activity (Progesterone receptor): Not Active
Activity [1]: Not Active

SMILES: CC(=O)[C@@]1(O[C@@H]2CCCCO2)CC[C@H]2[C@@H]3CC[C@@H]4CC(=O)CC[C@]4(C)[C@H]3[C@H](O[C@H]3CCCCO3)C[C@@]21C
Activity [1]: Not Active

SMILES: CC(=O)[C@H]1CC[C@H]2[C@H]3[C@H]([C@H](O[C@@H]4CCCCO4)C[C@]12C)[C@@]1(C)CCC(=O)C[C@H]1C[C@@H]3OC(=O)c1ccccc1
Activity [1]: Not Active

SMILES: CC(=O)[C@@]1(O[C@@H]2CCCCO2)CC[C@H]2[C@@H]3CC[C@@H]4CC(=O)CC[C@]4(C)[C@H]3[C@H](O[C@@H]3CCCCO3)C[C@@]21C
Activity [1]: Not Active

SMILES: CC(=O)[C@H]1CC[C@H]2[C@H]3[C@H]([C@H](OC(=O)c4ccccc4)C[C@]12C)[C@@]1(C)CCC(=O)C[C@H]1C[C@@H]3OC(=O)c1ccccc1
Activity (Progesterone receptor): Not Active

inhibition at 1 h, 10 µM (P-gp (ABCB1)): 79.8%
SMILES: COC(=O)CC[C@@H](C)[C@H]1CC[C@H]2[C@@H]3[C@H](OC(=O)c4ccccc4)CC4CC(=O)CC[C@]4(C)[C@H]3C[C@H](O[C@@H]3CCCCO3)[C@]12C (single isomer, unassigned)
